Among the data in the supplement of paper PMC10307832 are relative viability values, retold here.

Holding throughout (experiment): relative viability (nuclei count vs DMSO), 5 days (fraction); higher = more cells survive
Compound in test [1]: COC1=C(C=C(C=C1)C2=CC3=NC=CN3C(=N2)NC4=C(C=CC=N4)C(=O)N)OC [BAY61-3606] + Cc1cc(Nc2cc(N3CCN(C)CC3)nc(Sc3ccc(NC(=O)C4CC4)cc3)n2)n[nH]1 [Tozasertib] (partner 0.1 µM)
In outline:
(§1)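 After 5 days of treatment, lung cancer cells in 1536-well plates were fixed and stained in a single step (final 0.05% Triton X-100, 1% formaldehyde, 1 ug/ml Hoechst) and their nuclei counted on 4× images. Treatment had been applied by pin tool the day after seeding as one drug alone or as a fixed anchor-drug dose with five library-drug doses (not always all listed) in √10 steps. Relative viability is the nuclei count of treated wells divided by that of vehicle wells, and values are medians of duplicate plates.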

Compound in test [2]: COc1cccc2c1C(=O)c1c(O)c3c(c(O)c1C2=O)C[C@@](O)(C(=O)CO)C[C@@H]3O[C@H]1C[C@H](N)[C@H](O)[C@H](C)O1 [Doxorubicin] + CC(C)C[C@H](NC(=O)[C@H](Cc1ccccc1)NC(=O)c1cnccn1)B(O)O [Bortezomib] (partner 0.002 µM)
In outline: as §1

Compound in test [3]: COc1cccc2c1C(=O)c1c(O)c3c(c(O)c1C2=O)C[C@@](O)(C(=O)CO)C[C@@H]3O[C@H]1C[C@H](N)[C@H](O)[C@H](C)O1 [Doxorubicin] + Cc1nc(Nc2ncc(C(=O)Nc3c(C)cccc3Cl)s2)cc(N2CCN(CCO)CC2)n1 [Dasatinib] (partner 0.075 µM)
In outline: as §1

Compound in test [4]: COc1cccc2c1C(=O)c1c(O)c3c(c(O)c1C2=O)C[C@@](O)(C(=O)CO)C[C@@H]3O[C@H]1C[C@H](N)[C@H](O)[C@H](C)O1 [Doxorubicin] + O=C(c1cc(Cc2n[nH]c(=O)c3ccccc23)ccc1F)N1CCN(C(=O)C2CC2)CC1 [Olaparib] (partner 8 µM)
In outline: as §1

UMC-11: the relative viability in test [1] (first compound 0.02 µM) turned out to be 0.2; in test [1] (first compound 0.06325 µM), 0.208; in test [1] (first compound 0.2 µM) it was 0.207; in test [1] (first compound 0.6325 µM) it was 0.201; in test [1] (first compound 2 µM), 0.192; in test [2] (first compound 0.001 µM) it was 0.667. Further, the relative viability in test [2] (first compound 0.003162 µM) is 0.543; in test [2] (first compound 0.01 µM), 0.668; in test [2] (first compound 0.03162 µM) it was 0.379; in test [2] (first compound 0.1 µM) it was 0.436; in test [3] (first compound 0.001 µM) it was 0.43; in test [3] (first compound 0.003162 µM), 0.47. For the same cell line, the relative viability in test [3] (first compound 0.01 µM) turned out to be 0.44; in test [3] (first compound 0.03162 µM) it was 0.446; in test [3] (first compound 0.1 µM), 0.282; in test [4] (first compound 0.001 µM), 0.38; in test [4] (first compound 0.003162 µM), 0.401; in test [4] (first compound 0.01 µM) it was 0.322. In addition, the relative viability worked out at 0.302 in test [4] (first compound 0.03162 µM) and 0.275 in test [4] (first compound 0.1 µM).
